Results as given in patent US20090325920A1, “METHODS FOR THE TREATMENT OF A TRAUMATIC CENTRAL NERVOUS SYSTEM INJURY” (priority 2005, published 2009).

Tests used:
[1] = test system: adults with blunt TBI, Glasgow Coma Scale score 4-12
From the text: We also hoped to detect signals of activity.
According to the U.S. Food and Drug Administration, an “adverse event” is any undesirable medical event occurring to a subject in a clinical trial, whether or not related to the study drug. This includes events not seen at baseline, or worsened if present at baseline. “Serious adverse events” are defined as death, immediate risk of death, or suspicion that use or continued use would result in the patient's death, prolongation of existing hospitalization, persistent or significant disability/incapacity, or a congenital anomaly/birth defect.
These included any thromboembolic event (deep vein thrombosis, thrombophlebitis, ischemic myocardial infarction, pulmonary embolism, stroke or transient ischemic attack), elevated liver enzymes, temperature elevation, allergic reactions, and hyperglycemia. […] An independent internal safety monitor made the determination if an adverse event was associated with study treatment. Both the FDA and an independent NIH-appointed data safety monitoring board independently reviewed these determinations.
Selection of participants: Consecutive adult victims of blunt TBI who reached Grady within 11 hours of injury with a post-stabilization or “index” Glasgow Coma Scale score (iGCS) of 4-12 were eligible for enrollment (FIG. 5).
Interventions: Following proxy consent, patients were placed in one of 8 clinical subgroups defined by gender (male versus female), race (black versus all others) and TBI severity (moderate versus severe). […] This asymmetric approach was adopted at the request of our NIH-appointed DSMB to maximize the number of patients receiving study drug while maintaining blinding.
Whenever a patient was enrolled, the next kit in sequence for that subgroup was used to prepare infusions. […] The remaining vials were used to prepare 5 subsequent 12-hour infusions at the same standard rate of 10 mls/hour for a total of 3 days of treatment. Details of drug monitoring are reported elsewhere (Wright et al. (2005) J Clin Pharmacol 45(6):640-648).
Methods of Measurement: To assess drug safety, study personnel rounded daily to document the occurrence of adverse events (AEs) or serious adverse events (SAEs). Hourly vital signs (blood pressure, heart rate, respiratory rate, temperature, and pulse oximetry), intracranial pressure readings, and other parameters (mean arterial pressure, cerebral perfusion pressure, and fluid balance), were abstracted from each patient's chart. Laboratory values were obtained from the hospital's information system, and concomitant medications and interventions were noted.
Whenever an SAE occurred, an independent board-certified neurosurgeon assessed its potential relationship to study treatment using pre-defined scale. SABs were reported within 24 hours to the Institutional Review Board (IRB), our NIH-appointed Data Safety Monitoring Board (DSMB), and the U.S. Food and Drug Administration. All other adverse events were reported to on a weekly basis.
The infusion was stopped if a patient experienced an anaphylactic reaction, a major thromboembolic event, an unexplained elevation of serum aspartate aminotransferase (AST) or alanine aminotransferase (ALT) to a level greater than 5,000 IU, or a serum total bilirubin level greater than 10 mg/dl. […] These rules were based on O'Brien-Fleming boundaries (O'Brien and Fleming (1979) Biometrics 35(3):549-556), constructed using an alpha spending approach (DeMets and Lan (1994) Statistics in Medicine 13(13-14):1341-1352; discussion 1353-1346).
Primary Data Analysis—Treatment and placebo groups were compared with respect to a variety of demographic, historical and prehospital characteristics to ensure that important independent predictors of outcome were equally distributed.

[2] = Solubility of progesterone in carriers; assay type: physicochemical
[3] = test system: patients having moderate to severe TBI; assay: Pilot phase II randomized double-blind trial of progesterone for traumatic brain injury, preliminary evaluation (Example 2); assay type: in vivo, human
Description: The administration protocol was carried out was described above in Example 1.
To determine if a therapeutic response was achieved, the following endpoints were monitored:
ICP reduction determined by calculating “therapeutic intensity level” (ICP-TIL);
duration of coma (injury to awaking);
mortality one-month post injury;
neurological outcome 1 month and 1 year post-injury, as determined by Glasgow outcome scale (GOS), Disability rating scale (DRS) and Galveston orientation and amnesia test (GOAT).
The administration protocol and pharmaceutical composition administered are described in detail in Example 1. Follow up regarding condition occurred at 30 days and 1 year.

[4] = number of subjects, treatment A (76 of 99)

## CC(=O)[C@H]1CC[C@H]2[C@@H]3CCC4=CC(=O)CC[C@]4(C)[C@H]3CC[C@]12C [progesterone, pregn-4-ene-3,20-dione]
[1]; both, human, in vivo, 30 days
  30-day adverse event rate: Acute respiratory distress syndrome: 2.6%
  30-day adverse event rate: Cardiac Arrhythmia: 5.2%
  30-day adverse event rate: Cholestatic Jaundice: 6.5%
  30-day adverse event rate: Fever: 70.1%
  30-day adverse event rate: Gastrointestinal Bleed: 5.2%
  30-day adverse event rate: Hyperglycemia-non DM: 27.3%
  30-day adverse event rate: Hypertension: 11.7%
  30-day adverse event rate: Hypotension: 9.1%
  30-day adverse event rate: Hypothermia: 5.2%
  30-day adverse event rate: Hypoxemia: 11.7%
  30-day adverse event rate: Increase Liver Enzyme: 6.5%
  30-day adverse event rate: Phlebitis at Injection Site: 1.3%
  30-day adverse event rate: Rash or Hives: 2.6%
  30-day adverse event rate: Seizures: 5.2%
  30-day adverse event rate: Shock: 2.6%
  30-day adverse event rate: Suspected Pneumonia: 11.7%
  30-day adverse event rate: Syndrome of inappropriate ADH: 1.3%
  30-day adverse event rate: Tachycardia: 24.7%
  30-day adverse event rate: Thromboembolic Disease: 3.9%
[1]; in vivo
  Mean Duration of Pressures Exceeding Threshold Values: CPP < 60: 6.9 h
  Mean Duration of Pressures Exceeding Threshold Values: ICP > 25: 5.0 h
  Mean Duration of Pressures Exceeding Threshold Values: MAP < 70: 2.5 h
  Mean Duration of Pressures Exceeding Threshold Values: Systolic BP < 90: 2.7 h
  Mean Frequency of Pressures Exceeding Threshold Values: CPP < 60: 92.9 Rate/1000 consecutive readings
  Mean Frequency of Pressures Exceeding Threshold Values: ICP > 25: 70.2 Rate/1000 consecutive readings
  Mean Frequency of Pressures Exceeding Threshold Values: MAP < 70: 29.5 Rate/1000 consecutive readings
  Mean Frequency of Pressures Exceeding Threshold Values: Systolic BP < 90: 32.1 Rate/1000 consecutive readings
  Percent of Patients with Clinical Values Exceeding the Threshold: CPP < 60: 48.7%
  Percent of Patients with Clinical Values Exceeding the Threshold: ICP > 25: 32.4%
  Percent of Patients with Clinical Values Exceeding the Threshold: MAP < 70: 29.0%
  Percent of Patients with Clinical Values Exceeding the Threshold: Systolic BP < 90: 29.0%
  adverse events specifically ascribed to administration: two cases of superficial phlebitis at the IV site
  aggregate and individual rates of adverse and serious adverse events versus placebo: not different between groups
  patients who developed a deep vein thrombosis: Three patients
  serious adverse events attributed to study drug: No serious adverse events were attributed to progesterone
  slope of treatment by time interaction term for mean temperature: −0.0055
[1]; progesterone group, n=77
  30-day adverse event rate: Central nervous system infection: 1.3%
  30-day adverse event rate: Death within 30 days: 13.0%
  30-day adverse event rate: Sepsis: 2.6%
[2]
  solubility: soluble only in alcohol
[2]; Intralipid 20%
  amount dissolved into solution: up to 4 gm per 1 liter of intralipid
[3]; moderate to severe TBI, three days IV progesterone, preliminary
  mortality rate: 12.9%
[3]; [4]
  Brain death, frequency: 4
  Medicinal death, frequency: 5
  Not Dead, frequency: 67
[3]; p=0.0295 by Fisher's exact test
  proportion of subjects experiencing brain death versus group B: significantly lower proportion
[3]; p=0.6622 by Fisher's exact
  proportion of subjects experiencing medical death versus group B: not statistically significant
[3]; percent of all 99 subjects
  Medicinal death, percent: 5.05%
  Not Dead, percent: 67.68%
[3]; versus control subjects, preliminary
  reduction in brain deaths: 60%
